Data as given in US10786503B2, “Treatment of adipocytes” (Melior Pharmaceuticals I, Inc., priority 2017, dated 2020).

What was measured:
[1] = Rodent oral glucose tolerance test; type: in vivo; details: FIG. 13
Text: In contrast, menthol potentiates the insulin sensitizing action of Compound 102 in a rodent oral glucose tolerance test.

[2] = system: human adipocytes; assay: Beige adipocyte gene expression by RT-PCR in primary cultured human adipocytes; type: cell-based
Description: (§1) Human adipocyte precursor cells isolated from subcutaneous abdominal fat were purchased from LaCell, LLC, New Orleans, La. Cells were seeded and grown to confluence in DMEM/F12 with 10% heat inactivated FBS. Differentiation to mature adipocytes was induced in medium composed of 70% DMEM and 30% DMEMF12 supplemented with 3% FBS, 1 μM dexamethasone (Sigma D4902), […] biotin (Sigma B4639), 100 nM insulin (Sigma 15500), 20 μM pantothenate (Sigma P5155), 5 μM rosiglitazone (AK Scientific F325) and […] (Sigma 15879) for four days. Cells were maintained in medium composed of 70% DMEM and 30% DMEMF12 supplemented with 3% FBS, 1 μM dexamethasone, 33 μM biotin, 100 nM insulin, and 20 NM pantothenate for seven days before experimental treatment.
A solution of 10 mM Compound 102 was prepared in DMSO and diluted to 60 μM or 30 μM in maintenance medium without dexamethasone for cell treatment. […]
(§2) Total RNA was isolated from adipocyte cultures grown in 12-well plates using Trizol and Qiagen RNAeasy kits. Reverse transcriptase and PCR were conducted in one reaction with the reverse PCR primer priming cDNA synthesis using SuperScript® III Platinum® One-Step Quantitative RT-PCR System with Rox from Invitrogen (11745). Predesigned Taqman primer-probe sets were purchased from Applied Biosystems for the following human transcript sequences: UCP1 (Hs249211), PPARGC1α (HS527078), PPARU (Hs103110), CPT1b (Hs439777), and GLUT4/SLC2A4 (Hs380691). Aplicons were designed to span an intron-exon junction to avoid amplification of genomic sequences. Each sample RT-PCR assay was conducted in duplicate.

[3] = system: Compound 102-induced UCP1 expression; assay: Effect of inhibitors on Compound 102-induced UCP1 expression; type: cell-based, human; details: over 4 days; LY294002 20 NM, H89 20 μM; FIG. 9
Description: as §1
as §2, with “Each sample RT-PCR assay was conducted in duplicate.” left out

[4] = system: primary cultured human adipocytes; assay: GLUT4 and UCP1 protein expression in primary cultured human adipocytes; type: cell-based; details: 7-day treatment period
Description: as §1
A solution of 10 mM Compound 102 was prepared in DMSO and diluted to 60 μM or 30 μM in maintenance medium without dexamethasone for cell treatment. In some experiments, cells were treated with 20 μM menthol (Sigma M2772).

[5] = Phase 2a clinical trial of Compound 102 (fasting plasma glucose, body weight); type: in vivo, human
Description: This Phase 2a clinical trial was conducted in the U.S. (103 subjects) and Korea (27 subjects). […] Subjects were treated with one of four active doses (100 mg once-daily (qd), 100 mg twice-daily (bid), 200 mg qd, or 200 mg bid) of Compound 102 or placebo for 4 weeks after having 3 weeks of placebo run-in. […] Body weights, as secondary endpoints, were measured at Day 1 and Day 29 and at the follow-up visit 1 week after treatment stopped, at Day 35. […] The effect was most pronounced in the U.S. subjects and in the 100 qd dose group.

[6] = system: UCP-1 adipose tissue protein; assay: UCP-1 adipose tissue protein in db/db mice (Western blot densitometry); type: in vivo; details: 100 mg/kg qd for 3 weeks, tissue 4 hours after last dose, FIG. 10
Description: Adipose tissue was collected 4 hours after the last dose of Compound 102.

[7] = human adipocytes, day 4, FIG. 3

CC1CCC(C(C)C)C(O)C1 (centres unmarked) [menthol, reference compound]
insulin sensitization or glycemic control [1]: does effect insulin sensitization or glycemic control | UCP1 expression ([2]; 7 day treatment, 30 μM menthol, 30 NM Compound 102, versus Compound 102 alone, FIG. 12 panel a): did not induce expression

O=S(=O)(NCCNC/C=C/c1ccc(Br)cc1)c1cccc2cnccc12 [Compound H89]
Compound 102-induced UCP1 mRNA in presence of inhibitor [3]: reduced UCP1 mRNA to levels of unstimulated controls or lower

COc1cc(CN(CCN)C(=O)OC(C)c2ccccc2)ccc1OCc1ccccc1 (centres unmarked) [PBMC]
Compound 102-induced UCP1 mRNA in presence of inhibitor [3]: reduced UCP1 mRNA to levels of unstimulated controls or lower

Cc1cccc(Oc2c[nH]c(=O)[nH]c2=O)c1 [Compound 102, 5-(m-tolyloxy)pyrimidine-2,4(1H,3H)-dione]
expression of GLUT4 protein ([4]; FIG. 5): continued to exist | expression of UCP1 protein ([4]; FIG. 6): continued to exist | GLUT4 mRNA ([2]; 7-day treatment period, FIG. 4): continued to increase | UCP1 mRNA ([2]; 7-day treatment period, FIG. 4): continued to increase | expression of the UCP1 activator PGC-1β ([2]; FIG. 7): induced | expression of the UCP1 activator PPARα ([2]; FIG. 7): induced | expression of TRPM8 menthol receptor mRNA ([2]; FIG. 8): induced | expression of Adipose Triglyceride Lipase (ATGL) [2, 7]: significant increases | expression of Carnitine palmitoyltransferase-Ib (CPT-1b) [2, 7]: significant increases | expression of GLUT4 [2, 7]: significant increases | expression of Transient Potential Melastatin 8 Receptor (TRPM8R) [2, 7]: significant increases | expression of UCP-1 [2, 7]: significant increases | body weight loss over the 4-week treatment period ([5]; Day 1 to Day 29, secondary endpoint): statistically significant improvements in body weight loss | body weight 1 week after treatment (Day 35) compared to Day 29 ([5]; follow-up 1 week after treatment stopped, FIG. 2): all groups except for the 200 mg bid group showed continued loss | fasting plasma glucose (FPG) ([5]; subjects with HbA1c 7-10%, 100 mg qd, 100 mg bid, 200 mg qd or 200 mg bid for 4 weeks, FIG. 1): progressive reduction | levels of UCP-1 adipose tissue protein [6]: Increased levels
